Here are results for ten compounds from patent US9718760B2, “Plasminogen activator inhibitor-1 inhibitors and methods of use thereof” (THE REGENTS OF THE UNIVERSITY OF MICHIGAN, priority 2012, dated 2017).

SMILES strings stand for the structures.

T1 sequence (P05121 24-402): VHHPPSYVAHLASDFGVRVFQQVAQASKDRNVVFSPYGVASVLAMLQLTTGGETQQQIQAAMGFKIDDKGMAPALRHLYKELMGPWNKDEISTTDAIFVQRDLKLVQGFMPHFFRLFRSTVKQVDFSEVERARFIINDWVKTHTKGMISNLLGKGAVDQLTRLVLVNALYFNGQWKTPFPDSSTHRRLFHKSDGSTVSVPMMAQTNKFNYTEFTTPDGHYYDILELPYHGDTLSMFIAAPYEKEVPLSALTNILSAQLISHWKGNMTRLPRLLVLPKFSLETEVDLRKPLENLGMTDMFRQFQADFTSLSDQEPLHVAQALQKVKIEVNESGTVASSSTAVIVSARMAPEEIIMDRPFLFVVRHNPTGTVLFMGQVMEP

For the first assay, the target named is anti-thrombin III (ATIII) (Homo sapiens (Human), UniProt P01008). In words: Fluorometric ATIII/αIIa IC50 plate assay at pH 7.8 (specificity control). Type of assay: biochemical. The note with it: physiologic buffer. As for the experimental part: (§1) Additional fluorometric plate assays were carried out, as set out below, to determine the IC50 of various synthesized compounds as PAI-1 inhibitors.
anti-thrombin III (ATIII), sequence (P01008 33-464 limits assumed, species assumed): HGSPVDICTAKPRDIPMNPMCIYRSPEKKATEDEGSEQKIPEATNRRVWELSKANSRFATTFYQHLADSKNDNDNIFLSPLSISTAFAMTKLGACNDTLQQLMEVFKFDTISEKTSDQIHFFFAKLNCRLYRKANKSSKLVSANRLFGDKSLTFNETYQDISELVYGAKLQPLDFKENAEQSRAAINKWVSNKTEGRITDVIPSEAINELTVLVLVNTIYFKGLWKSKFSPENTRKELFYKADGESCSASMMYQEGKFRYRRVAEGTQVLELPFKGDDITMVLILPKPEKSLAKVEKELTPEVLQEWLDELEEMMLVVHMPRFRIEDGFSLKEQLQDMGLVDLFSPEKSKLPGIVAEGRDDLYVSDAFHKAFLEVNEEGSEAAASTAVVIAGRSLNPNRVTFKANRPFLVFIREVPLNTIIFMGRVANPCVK
Alpha-thrombin is an active enzyme, related to uPA or tPA. Alpha-thrombin is inhibited by the serpin ATIII, which is closely related to PAI-1. This assay was used therefore as a control in testing for specificity of the PAI-1 inhibitor compounds. Thus, any compound that is specific for inhibiting PAI-1 should not inhibit ATIII.
PAI-1 inhibitor compounds were dissolved in DMSO to a final concentration of (10-50 mM), depending upon solubility. […] 100 μL of 100 μM fluorogenic, tripeptide aminomethylcoumarin benzoyl Phe-Val-Arg-AMC substrate was then added and residual αIIa activity was determined based upon cleavage of this substrate. The rate of AMC release by αIIa was measured at an excitation wavelength of 370 nm and an emission wavelength of 440 nm. Controls included PAI-1 and αIIa in the absence of compound and αIIa alone. Percent PAI-1 inhibition is calculated using the following formula: [(αIIa alone-αIIa/PAI-1+ compound)/(αIIa alone-PAI-1/αIIa)]*100%. The IC50 is calculated using Graphit (IC50 0-100%).
In general, IC50 refers to the concentration needed to halve the response being measured. Regarding `CCCCCCCCN(S(=O)(=O)c1ccc(O)c(O)c1)S(=O)(=O)c1cc(F)c(O)c(F)c1` [C152], the IC50 amounted to 87 µM.

With `CCCCCCCCN(S(=O)(=O)c1cc(F)c(O)c(F)c1)S(=O)(=O)c1cc(F)c(O)c(F)c1` [C155], the IC50 worked out at 2330 µM.

With `CCCCCCCCCCN(S(=O)(=O)c1ccc(O)c(O)c1)S(=O)(=O)c1ccc(O)c(O)c1` [C157], the IC50 came out at 44.4 µM.

Consider `CCCCCCCCCCCCN(S(=O)(=O)c1ccc(O)c(O)c1)S(=O)(=O)c1ccc(O)c(O)c1` [C158], for which the IC50 came to 547 µM.

With `O=S(=O)(NCc1ccccc1)c1ccc(O)c(O)c1` [C160], inhibition was half-maximal at 2330 µM (IC50).

The compound `CCCCCCCCNC(=O)c1cc(O)c(O)c(O)c1` [C161] came in with an IC50 of 1670 µM.

A further assay concerns the target T1, recombinant active human PAI-1 (Homo sapiens (Human), UniProt P05121). In words: Fluorometric PAI-1/tPA IC50 plate assay at pH 7.8. Type of assay: biochemical. The note with it: physiologic buffer. As to the method: as §1
PAI-1 inhibitor compounds were dissolved in DMSO to a final concentration of (10-50 mM), depending upon solubility. […] Tissue type PA activity in each reaction mixture was determined by adding Phe-Gly-Arg-AMC fluorogenic substrate (100 μL of 100 μM) (Centerchem). The rate of AMC release by tPA was measured at an excitation wavelength of 370 nm and an emission wavelength of 440 nm. Controls included PAI-1 and tPA in the absence of compound and tPA alone. Percent PAI-1 inhibition was calculated using the following formula: [(tPA alone-tPA/PAI-1+ compound)/(tPA alone-PAI-1/tPA)]*100%. The IC50 is calculated using Graphit (IC50 0-100%).
As for `CCCCCCCCN(S(=O)(=O)c1ccc(O)c(O)c1)S(=O)(=O)c1cc(F)c(O)c(F)c1` [C152], the IC50 stood at 1.71 µM.

On to `CCCCCCCCN(S(=O)(=O)c1cc(F)c(O)c(F)c1)S(=O)(=O)c1cc(F)c(O)c(F)c1` [C155], for which the IC50 was found to be 34.8 µM.

For `CC(C)(C)OC(=O)NCCCOC(=O)c1cc(O)c(O)c(O)c1` [C156], the IC50 is 581 µM.

Consider `CCCCCCCCCCN(S(=O)(=O)c1ccc(O)c(O)c1)S(=O)(=O)c1ccc(O)c(O)c1` [C157], for which the IC50 was determined as 0.98 µM.

For `CCCCCCCCCCCCN(S(=O)(=O)c1ccc(O)c(O)c1)S(=O)(=O)c1ccc(O)c(O)c1` [C158], the IC50 came to 1.44 µM.

Regarding `O=S(=O)(NCc1ccccc1)c1ccc(O)c(O)c1` [C160], the IC50 worked out at 58.2 µM.

As to `CCCCCCCCNC(=O)c1cc(O)c(O)c(O)c1` [C161], the IC50 worked out at 2.21 µM.

On to `O=S(=O)(c1ccc(O)c(O)c1)N(CCc1ccccn1)S(=O)(=O)c1ccc(O)c(O)c1` [C162], for which the IC50 stood at 7.59 µM.

On to `O=S(=O)(c1ccc(O)c(O)c1)N(c1cccc(C(F)(F)F)c1)S(=O)(=O)c1ccc(O)c(O)c1` [C163], for which the IC50 is 0.611 µM.

As to `O=S(=O)(c1ccc(O)c(O)c1)N(c1ccc(-c2ccccc2)cc1)S(=O)(=O)c1ccc(O)c(O)c1` [C165], the IC50 is 0.51 µM.

For a further assay, the target named is T1, recombinant active human PAI-1. In words: Fluorometric PAI-1/uPA IC50 plate assay at pH 7.8. The class given is biochemical. The note with it: physiologic buffer. As to the method: To determine the efficacy of various synthesized compounds as PAI-1 inhibitors at pH 7.8, additional fluorometric plate assays were carried out to measure the half maximal inhibitory concentration (IC50) of these compounds on recombinant active human PAI-1 in vitro.
PAI-1 inhibitor compounds were dissolved in DMSO to a final concentration of (10-50 mM), depending upon solubility. […] Fluorescence, as a measure of the rate of AMC release by uPA, was read at the following wavelengths; excitation 370 nm, emission 440 nm. Controls included PAI-1 and uPA in the absence of compound and uPA alone. Percent PAI-1 inhibition was calculated using the following formula: [(uPA alone-uPA/PAI-1+ compound)/(uPA alone-PAI-1/uPA)]*100%. The IC50 was calculated using Graphit (IC50 0-100%).
Regarding `CCCCCCCCN(S(=O)(=O)c1ccc(O)c(O)c1)S(=O)(=O)c1cc(F)c(O)c(F)c1` [C152], the IC50 was 1.57 µM.

Consider `CCCCCCCCN(S(=O)(=O)c1cc(F)c(O)c(F)c1)S(=O)(=O)c1cc(F)c(O)c(F)c1` [C155], for which the IC50 was determined as 30.4 µM.

`CC(C)(C)OC(=O)NCCCOC(=O)c1cc(O)c(O)c(O)c1` [C156]: the IC50 worked out at 189 µM.

With `CCCCCCCCCCN(S(=O)(=O)c1ccc(O)c(O)c1)S(=O)(=O)c1ccc(O)c(O)c1` [C157], the IC50 was determined as 0.25 µM.

On to `CCCCCCCCCCCCN(S(=O)(=O)c1ccc(O)c(O)c1)S(=O)(=O)c1ccc(O)c(O)c1` [C158], for which the IC50 was 2.6 µM.

In the case of `O=S(=O)(NCc1ccccc1)c1ccc(O)c(O)c1` [C160], the IC50 came to 39 µM.

For `CCCCCCCCNC(=O)c1cc(O)c(O)c(O)c1` [C161], the IC50 was 3.7 µM.

On to `O=S(=O)(c1ccc(O)c(O)c1)N(CCc1ccccn1)S(=O)(=O)c1ccc(O)c(O)c1` [C162], for which the IC50 was found to be 3.9 µM.

Take `O=S(=O)(c1ccc(O)c(O)c1)N(c1cccc(C(F)(F)F)c1)S(=O)(=O)c1ccc(O)c(O)c1` [C163]: the IC50 is 0.288 µM.

As for `O=S(=O)(c1ccc(O)c(O)c1)N(c1ccc(-c2ccccc2)cc1)S(=O)(=O)c1ccc(O)c(O)c1` [C165], the IC50 was 0.35 µM.
